Converted amounts (≈) assume the structure as drawn.
Columns and labels:
[1] = Differential solubility in acetonitrile of free and complexed compound I; assay type: physicochemical; details: organic solvent or mixture; free compound
From the text: Compound I has different solubility when it is in the complex form or not. […] In these conditions the included drug remains trapped and becomes insoluble in the solvent. This technique of differential solubility between compound I in the free or in the complexed form can be applied to evaluate the percentage of complexation.

[2] = tested on: allergen-induced airway inflammation and bronchial hyperresponsiveness in a mouse model of asthma; experiment: Mouse model of asthma, inhalation, short exposure challenge; details: inhalation of Compound I 40 mg/ml in pure DMSO, short-term exposure, vs DMSO alone
Procedure: Two protocols referred to as short exposure challenge and long-term exposure challenge were used. […] No inhalations were performed during even weeks.
The aerosol were produced by using an ultrasonic nebuliser SYSTAM (Système Assistance Medical, Le Ledat, France), the vibration frequency of which is 2.4 MHz with variable vibration intensity and ventilation levels. Vibration intensity was fixed in position 6 and the ventilation level was 25(v1/2) l/min.
Twenty-four hours after the last allergen exposure, the bronchial hyper responsiveness was determined by measuring the Penh using a barometric plethysmograph as proposed by Hamelmann, E., et al., Am. […] The Penh was measured at baseline and 5 min after the inhalation of increasing doses (25, 50, 75 and 100 mM) of methacholine (Mch).
Immediately after the assessment of airway responsiveness, mice were sacrificed and 1 ml of PBS free of ionised calcium and magnesium but supplemented with 0.05 mM sodium EDTA was instilled 4 times via a tracheal cannula and recovered by gentle manual aspiration. The recovered bronchoalveolar lavage fluid (BAL) was centrifuged (1800 rpm for 10 min at 4° C.). The cell pellet was washed twice and finally resuspended in 1 ml of PBS. A total cell count was performed in a Thoma chamber and the differential cell counts on at least 400 cells were performed on cytocentrifuged preparations (Cytospin 2; Cytospin, Shandon td., Runcorn, Cheshire, U.K.) using standard morphologic criteria after staining with Diff-Quick (Dade, Germany). After BAL, the thorax was opened and the left main bronchus was clamped. […] Sections of 5 μm thickness from all lobes were stained with haematoxylin and eosin. The extent of peribronchial infiltrates was estimated by an inflammation score. […] A value from 0 to 3 per criteria was adjudged to each tissue section scored. […] As 5-7 randomly selected tissue sections per mouse were scored, inflammation scores could be expressed as a mean value per animal and could be compared between groups.

[3] = tested on: allergen-induced airway inflammation in a mouse model of asthma; experiment: Mouse model of asthma, intraperitoneal injection of Compound I; assay type: in vivo, mice
Procedure: No inhalations were performed during even weeks.

[4] = tested on: aorta ring, formation of new vessels (angiogenesis); experiment: Aorta ring model of neovascularisation (inhibition of angiogenesis); assay type: cell-based; details: aorta ring in culture medium, final concentration 10^−6 M, 10^−7 M
From the text: In order to study the potential effects of the complex Compound I-cyclodextrine, a model of neovascularisation has been used. An aorta ring is cut and placed in a culture medium. This culture medium containing either: • no active principle • the complex compound I-cyclodextrins (final concentration 10-^6M, 10^−7M) • compound I dissolved in DMSO with the help of […] (final concentration 10-^6, 10-^7M).

[5] = Phase solubility studies with L-lysine solution as adjuvant (25° C., 7 days, LC); assay type: physicochemical
Procedure: Solubility studies were performed as described by Higuchi, T., and Connors, K. A., Advances in Analytical Chemistry and Instrumentation 4 (1965) 117-212. Excess amounts of Compound I were added to increasing concentrations of HP-β-CD (0-200 mM) in 5 ml dissolution media, either purified water or L-lysine solutions (50 mM or 500 mM). The glass containers were sealed and the suspensions were shaken in a water-bath at 25° C. until complexation equilibrium was reached (7 days). An aliquot was filtered through a 0.45 μm PVDF membrane filter and assayed for Compound I content by a validated liquid chromatography (LC) method.

[6] = Pharmacokinetics after intravenous administration to sheep; assay type: in vivo; details: intravenous 5 mg/kg
Procedure: The Compound I/HP-β-CD intravenous solution was obtained by dissolving Compound I (10 mg/ml) in a solution containing HP-β-CD (200 mM), L-lysine (20 mM) and water for injection. The osmolality (about 325 mOsmol/kg) and the pH (about 8.2) values of this solution are compatible with an intravenous injection. The solution was sterilized by passing through a sterile 0.20 μm cellulose acetate filter under aseptic conditions.
Six healthy sheep (2 males and 4 females) ranging from 45 to 82 kg of body weight were used as experimental animals. During the test, the animals were fed and watered ad libitum. […]
For the intravenous administration study, the pharmacokinetic parameters were determined for each animal using a linear two-compartment model with first-order distribution and elimination (Boroujerdi, M., Pharmacokinetics, Principles and Applications. McGrow-Hill Companies, USA, 2002). The areas under the curve values (AUCs0-168) were calculated by linear trapezoidal rule during the sampling period. The AUC extrapolated until infinite values (AUCs0-∞) the total body clearance values (Clt), the biologic half-life (T1/2β) and the overall volume of distribution (Vdt) were calculated using conventional equations associated with compartmental analysis (Boroujerdi, M., Pharmacokinetics, Principles and Applications. McGrow-Hill Companies, USA, 2002).

O=C1NC(=O)C(c2ccc(-c3ccccc3)cc2)(N2CCN(c3ccc([N+](=O)[O-])cc3)CC2)C(=O)N1 [Compound I, 5-Biphenyl-4-yl-5-[4-(4-nitro-phenyl)-piperazin-1-yl]pyrimidine-2,4,6-trione]
solubility [1]: ~0.7 mg/mL (≈ 1440 µM) | BAL eosinophils ([2]; p<0.005): significant decrease | Peribronchial inflammation scores ([2]; p<0.01): significant decrease | Bronchial hyperresponsiveness ([2]; p<0.05): significant decrease | Peribronchial inflammation scores ([3]; 3.75 to 30 mg/kg, equal efficacy of all tested formulations): significantly lowered | Tissue eosinophil infiltration score ([3]; doses of 7.5 and 25 mg/kg): significantly lowered | Allergen-induced airway eosinophilic inflammation in BAL ([3]; solution or precipitate, 3.75 to 30 mg/kg, compared to placebo, OVA-sensitized mice): lowered | Angiogenesis (formation of new vessels) [4]: inhibited significantly | Increase of aqueous solubility ([5]; 200 mM HP-β-CD, absence of L-lysine): approximately 10,000 fold | Increase of aqueous solubility ([5]; 500 mM of L-lysine and 200 mM of HP-β-CD): 70,000 fold | Solubility with HP-β-CD (200 mM) ([5]; Purified Water, 25° C.): 5.53 mg/mL | Distribution phase [6]: about 30 minutes
